Data: patent US20220378756A1, “ACTIVATING PYRUVATE KINASE R” (FORMA Therapeutics, Inc., priority 2019, published 2022)

Assay: Phase 1 SAD/MAD, healthy volunteers: safety
Format: in vivo, human
From the text: This is a first-in-human (FIH), Phase 1 study of Compound 1 that will characterize the safety, PK, and PD of Compound 1 after a single dose and after repeated dosing first in healthy adult volunteers and then in adolescents or adults with sickle cell disease. Initially, a dose range of Compound 1 in single ascending dose (SAD) escalation cohorts will be explored in healthy subjects. Enrollment of healthy subjects into 2-week multiple ascending dose (MAD) escalation cohorts will be initiated once the safety and PK from at least two SAD cohorts is available to inform the doses for the 2-week MAD portion of the study. The MAD cohorts will then run in parallel to the single dose cohorts. A single dose cohort is planned to understand food effects (FE) on the PK of Compound 1. […] Multiple dose studies in SCD subjects will then be initiated upon completion of MAD studies in healthy volunteers. Compound 1 will be administered in 25 mg and 100 mg tablets delivered orally.
In this study, SAD/MAD cohorts are randomized (3 to 1) to receive Compound 1 or placebo (P). Compound 1 was evaluated first in 4 healthy SAD cohorts and 4 healthy MAD (14-day dosing period) cohorts. Based on the safety, and PK/PD profile from HS, Compound 1 is then evaluated in 1 SCD SAD cohort and 2 SCD MAD cohorts. Specifically, based on the safety and pharmacokinetic/pharmacodynamics (PK/PD) profile in healthy volunteer studies, Compound 1 is evaluated in patients (pts) with SCD, first in a single dose (SD or SAD) cohort and then in multiple-dose (MD or MAD) cohorts (14-day and 12-week). Safety assessments include AEs, vital signs, ECGs and laboratory parameters. PK/PD blood sampling was performed on Day 1 (SAD/MAD) and Day 14 (MAD) and up to 72 h after the last dose and at the end-of-study visit. PD parameters included 2,3-DPG, ATP, and p50 in all cohorts with additional PD studies (including oxygen scan) performed only in the SCD cohorts. PD parameters included 2,3-DPG, ATP, p50, RBC deformability with controlled deoxygenation and reoxygenation (Lorrca® oxygen scan) and varying osmolality (Lorrca® osmoscan)). To maintain study blind, pt identifiers were removed when needed.
Four healthy SAD cohorts were evaluated at doses of 200, 400, 700, and 1000 mg, and four healthy MAD cohorts received 200 to 600 mg total daily doses for 14 days at QD or BID dosing (100 mg BID, 200 mg BID, 300 mg BID, and 400 mg QD). In the food effect (FE) cohort, 10 healthy subjects received 200 mg of Compound 1 QD with and without food.

For `O=C([C@H](CO)c1ccccc1)N1CC2=C(C1)CN(S(=O)(=O)c1cnc3c(c1)OCCO3)C2` (single isomer, unassigned) [Compound 1], the “Grade 1 headache, incidence” value (HS receiving 14 days of dosing) was 28%, the “Grade 1 headache, incidence” value (HS receiving a single dose) was 4% and the “related TEAE of grade 2 or less: headache” value (MAD cohorts) was 4 n. For the same compound, the “related TEAE of grade 2 or less: palpitations” value (MAD cohorts) was 1 n, the “related TEAE of grade 2 or less: somnolence” value (MAD cohorts) was 1 n and the “Any TEAE, n (%)” value (MAD, N = 36) was 15 (42) n (%). For the same compound, the “Any grade 3 or greater TEAE, n (%)” value (MAD, N = 36) was 0 n (%), the “Drug interruption, reduction, or discontinuation due to TEAE, n (%)” value (MAD, N = 36) was 0 n (%) and the “serious adverse events / AEs leading to withdrawal” value (SAD and MAD cohorts of healthy volunteers) was “No serious adverse events (SAEs) or AEs leading to withdrawal”. The “related TEAE of grade 2 or less: headache” value (SAD cohorts) was 1 n, the “related TEAE of grade 2 or less: transient ventricular tachycardia” value (SAD cohorts) was 1 n and the “Any TEAE, n (%)” value (SAD, N = 24) was 5 (21) n (%). For the same compound, the “Any grade 3 or greater TEAE, n (%)” value (SAD, N = 24) was 1 (4) n (%) and the “Drug interruption, reduction, or discontinuation due to TEAE, n (%)” value (SAD, N = 24) was 0 n (%).
